Several values for one entry are separate records, joined by “and”; a condition that tells them apart may be missing. Identical values can stand only once.
Key:
Format in all cases: in vivo
[1] = tested on: potato minitubers; assay: harvests after 60 d from minitubers forced to break dormancy (greenhouse pots); conditions: GA3 500 mg l^−1 / 100% signal solution / BE 0.2 m l^−1; for Mean number of tubers produced per replicate / Mean fresh weight: harvest after 60 d; for Mean number sprouts at planting ± SE: minitubers cold-stored 8 wk, 3 wk after treatment; for Mean fresh weight: tubers per replicate (pot)
Description: Minitubers (20–35 g) that were cold-stored for 8 wk were given dormancy-releasing treatments including 24 h soaking in GA3 (500 mg l^−1), 100% signal solution, or water. Other treatments included BE (0.2 m l^−1), cutting in half, and the control. […] Five minitubers per treatment were individually planted into 11×12 cm plastic pots in the greenhouse. The potting mixture was 2:1 peat:perlite without fertilizer added. The pots were arranged in a complete randomized design and watered equally every alternate day. Harvest occurred after 60 d and tuber yields (number and fresh weight) were recorded.

[2] = tested on: potato microtubers; assay: sprouting and multiple sprouting of microtubers cold-stored 8 wk; conditions: Microtuber (CS8W); for Sprouting (number of sprouted tubers): GA3 500 mg l^−1 / 100% signal solution / Bromoethane 0.2 ml l^−1
Description: (§1) Microtubers (200–500 mg) cold-stored for 8 wk and minitubers (20–35 g) cold-stored for 0, 2, or 8 wk were used for these experiments. BE (0.2 ml l^−1) and mechanical injury (cutting in half, microwaving at full power for 10 sec) were compared with GA3 (500 mgl^−1), 100% signal solution, water soaking, and control treatments. Six microtubers or minitubers were used per treatment. Observations were made at 1, 2, 3, and 4 wk intervals and the number of sprouted tubers were counted. The evaluation period was extended because tubers with little or no cold storage treatment took longer to sprout.

[3] = tested on: potato minitubers; assay: sprouting and multiple sprouting of minitubers cold-stored 0, 2 or 8 wk; conditions: for Sprouting (number of sprouted tubers): GA3 500 mg l^−1 / 100% signal solution / Bromoethane 0.2 ml l^−1; for number of tubers with multiple sprouts: six tubers per treatment, doses as title
Description: as §1

[4] = tested on: potato microtubers; assay: sprouting of microtubers cold-stored 3 weeks, dormancy-breaking agents incl. anti-ABA; conditions: evaluated at 2 weeks
Description: Microtubers (200–600 mg) were cold-stored for 3 wk prior to the experiment. Seven microtubers were used per treatment. Treatments included 24 h soaks in anti-ABA or GA3 (500 and 250 mg l^−1, respectively) applied alone or in combination, GA3 (500 mg l^−1 in combination with 100% signal solution, and water. Bromoethane (0.2 ml l^−1) and control treatments were also performed. Observations were made after 2 wk in the dark at room temperature (20° C.). Data included number of sprouted microtubers and number of multiple sprouts. Means of sprout number were calculated only from microtubers that had sprouted.

[5] = tested on: potato microtubers; assay: dormancy breaking of potato microtubers cold-stored 8 wk; conditions: GA3 500 mgl^−1
Description: Treatments were carried out on microtubers (200–400 mg) that had been cold-stored for 8 wk to determine their effect on breaking dormancy. Signal solution was used at full strength (100%) or diluted to 20% (as for soybean), 12%, or 6% of full strength. GA3 (500 mg l^−1), water soaking, and control treatments were performed for comparison purposes. Microtuber soaking treatments lasted 24 h and then incubation occurred either in the light (40 μmol m^−2s^−1 cool-white fluorescent) or in the dark. Five microtubers were used in each treatment. Observations for sprouted microtubers were made at 1 and 2 wk.
One hundred % signal solution was as effective as GA3 (500 mg l^−1) when evaluated after 1 wk with respect to the number of sprouted microtubers. […] One hundred % signal solution induced multiple sprouts and dark incubation favoured sprouting as compared with the light regime after 1 wk of incubation. The exact cause of dark incubation favouring 100% signal solution is not understood.

[6] = tested on: potato minitubers; assay: GA3 and 100% signal solution, dormancy breaking of minitubers cold-stored 3 weeks
Description: Minitubers (20–30 g) with 3 wk cold storage treatment were soaked for 24 h in 500 mg l^−1 GA3, 100% signal solution, or a mixture of the two. Another treatment involved successive soaking for 12 h each, in first GA3, and then signal solution. A control treatment without soaking was also performed. Eight minitubers were used per treatment which were applied at room temperature (20° C.). […] were observed after 2 wk and the number of sprouted minitubers and the number with multiple sprouts were counted.

[7] = tested on: alfalfa (Medicago sativa); assay: germination of alfalfa seeds (petri plate); conditions: after 24 h of treatment
Description: Following the methods described above, the LCO most abundantly produced by R. meliloti (Nod Rm-V(C16:2, S)) was isolated and tested on alfalfa (Medicago sativa) seeds. Briefly, 10 seeds were placed in a disk of filter paper on a petri plate. The filter paper was wetted with 5 ml of the appropriate LCO solution. Data were taken at 12 hour intervals upon the radicle (an embryonic root). The number of seed with an emerged radicle were counted. Each treatment was repeated four times. The data presented in table 9 indicate a clear acceleration of growth. In this case no standard for HPLC calibration was available, so a relative dilution series was used. […] In each case, a stimulation of seed germination was observed. Of note, Rhizobium leguminosarum produces a large number of LCOs.

[8] = single agent 24 h soak (GA3 500 mgl^−1 or 100% SS), after 2 wk

Row | SMILES | Mean number of tubers produced per replicate [1] | Mean number sprouts at planting ± SE [1] | Mean fresh weight [1] [g·days] | Sprouting (number of sprouted tubers) ([2]; 1 wk) | Sprouting (number of sprouted tubers) ([2]; 2 wk) | Sprouting (number of sprouted tubers) ([2]; 3 wk) | Sprouting (number of sprouted tubers) ([2]; 4 wk) | Sprouting (number of sprouted tubers) ([3]; Minituber (CS2W), 1 wk) | Sprouting (number of sprouted tubers) ([3]; Minituber (CS2W), 2 wk) | Sprouting (number of sprouted tubers) ([3]; Minituber (CS2W), 3 wk) | Sprouting (number of sprouted tubers) ([3]; Minituber (CS2W), 4 wk) | Sprouting (number of sprouted tubers) ([3]; Minituber (CS8W), 1 wk) | Sprouting (number of sprouted tubers) ([3]; Minituber (CS8W), 2 wk) | Sprouting (number of sprouted tubers) ([3]; Minituber (CS8W), 3 wk) | number of tubers with multiple sprouts ([3]; Minituber (CS8W), 3 wk) | Sprouting (number of sprouted tubers) ([3]; Minituber (CS8W), 4 wk) | number of tubers with multiple sprouts ([3]; Minituber (CS8W), 4 wk) | Sprouting (number of sprouted tubers) ([3]; Minituber (NCS), 1 wk) | Sprouting (number of sprouted tubers) ([3]; Minituber (NCS), 2 wk) | Sprouting (number of sprouted tubers) ([3]; Minituber (NCS), 3 wk) | also measured
1 | CCBr [Bromoethane] | 2.0 | 1.8 ± 0.20 | 14.01 | 2/6 | 4/6 | 4/6 | 6/6 | 0 | 0 | 0 | 2/6 | 3/6 | 4/6 | 6/6 | (4) | 6/6 | (4) | 0 | 0 | 0 | Mean number sprouts at planting ± SE ([1]; listed as BE): 1.8±0.2; number of tubers with multiple sprouts ([3]; Minituber (CS8W), 2 wk): (1); number of tubers with multiple sprouts ([3]; Minituber (CS8W), 2 wk, listed as BE): 1/6; Sprouting (number of sprouted tubers) ([3]; Minituber (NCS), 4 wk): 0; Mean No. sprouts ± SE ([4]; Bromoethane (0.2 ml l^−1)): 1.0 ± 0; No. sprouted microtubers ([4]; Bromoethane (0.2 ml l^−1)): 1/7
2 | C=C1C[C@]23C[C@@]1(O)CC[C@H]2[C@@]12C=C[C@H](O)[C@@](C)(C(=O)O1)[C@H]2[C@@H]3C(=O)O [GA3, gibberellic acid] | 3.6 | 4.2±0.37 | 11.13 | 4/6 | 5/6 | 6/6 | 6/6 | 0 | 0/6 and 0 | 3/6 | 5/6 | 5/6 | 6/6 | 6/6 | (6) | 6/6 | (6) | 0 | 0/6 and 0 | 3/6 | number of tubers with multiple sprouts ([2]; 3 wk, six tubers per treatment, doses as title): (3); Mean number of sprouts ± SE ([5]; + light): 2.5 ± 0.5; Number of multiple sprouted microtubers (2 wk) ([5]; + light): 2/5; Number of sprouted microtubers ([5]; + light, 1 wk): 1/5; Number of sprouted microtubers ([5]; + light, 2 wk): 5/5; Mean number of sprouts ± SE ([5]; − light): 2.5 ± 0.3; Number of multiple sprouted microtubers (2 wk) ([5]; − light): 4/5; Number of sprouted microtubers ([5]; − light, 1 wk): 5/5; Number of sprouted microtubers ([5]; − light, 2 wk): 5/5; number of tubers with multiple sprouts ([3]; Minituber (CS2W), 4 wk): (2); Sprouting (number of sprouted tubers) ([3]; Minituber (NCS), 4 wk): 4/6; sprouting ([6]; 24 h soak, GA3 500 mg l^−1 alone or together with 100% signal solution, 2 wk): 100%; Mean number of sprouts ± SE [6, 8]: 3.37 ± 0.62; Number of minituber with multiple sprouts [6, 8]: 6/8; Number of sprouted minituber [6, 8]: 8/8; Mean No. sprouts ± SE ([4]; GA3 500 mgl^−1 24 h): 1.71±0.28; No. sprouted microtubers ([4]; GA3 500 mgl^−1 24 h): 7/7
3 | CCCCCC/C=C\CCCCC/C=C/C(=O)N[C@H]1[C@H](O[C@H]2[C@H](O)[C@@H](NC(C)=O)[C@H](O[C@H]3[C@H](O)[C@@H](NC(C)=O)[C@H](O[C@H]4[C@H](O)[C@@H](NC(C)=O)[C@H](O[C@H]5[C@H](O)[C@@H](NC(C)=O)C(O)O[C@@H]5COS(=O)(=O)O)O[C@@H]4CO)O[C@@H]3CO)O[C@@H]2CO)O[C@H](CO)[C@@H](O)[C@@H]1O (stereo partly drawn) [Nod Rm-V(C16:2, S)] |  |  |  |  |  |  |  |  |  |  |  |  |  |  |  |  |  |  |  |  | Percent germination ([7]; 10^−1 dilution): 26.6 ab Percent; Percent germination ([7]; 10^−2 dilution): 26.6 ab Percent; Percent germination ([7]; 10^−3 dilution): 36.6 a Percent
